# Target: T1, NHE3 (Homo sapiens, UniProt P48764)
# T1 construct: expressed in transfected cells
# T1 sequence (P48764 26-834): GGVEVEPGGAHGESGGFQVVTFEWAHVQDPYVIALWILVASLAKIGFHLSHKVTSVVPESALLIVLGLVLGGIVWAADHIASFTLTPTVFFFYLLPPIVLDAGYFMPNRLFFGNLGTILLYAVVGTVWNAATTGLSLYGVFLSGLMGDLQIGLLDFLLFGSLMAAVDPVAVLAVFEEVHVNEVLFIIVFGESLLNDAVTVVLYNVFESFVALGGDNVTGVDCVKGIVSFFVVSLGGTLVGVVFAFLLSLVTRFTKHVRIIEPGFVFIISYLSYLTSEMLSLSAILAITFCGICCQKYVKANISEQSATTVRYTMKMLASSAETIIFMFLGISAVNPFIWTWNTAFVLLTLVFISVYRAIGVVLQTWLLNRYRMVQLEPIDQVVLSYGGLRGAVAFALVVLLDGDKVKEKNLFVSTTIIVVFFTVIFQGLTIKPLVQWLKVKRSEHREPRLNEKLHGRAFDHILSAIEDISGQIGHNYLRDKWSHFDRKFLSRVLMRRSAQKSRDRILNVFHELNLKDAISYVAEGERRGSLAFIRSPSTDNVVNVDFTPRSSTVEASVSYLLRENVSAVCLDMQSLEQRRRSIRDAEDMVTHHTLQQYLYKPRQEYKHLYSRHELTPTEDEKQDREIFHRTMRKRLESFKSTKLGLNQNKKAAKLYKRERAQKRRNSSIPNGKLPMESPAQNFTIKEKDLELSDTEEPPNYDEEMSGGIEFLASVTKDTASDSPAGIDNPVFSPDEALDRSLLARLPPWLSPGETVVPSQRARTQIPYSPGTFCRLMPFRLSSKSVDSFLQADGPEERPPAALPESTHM
# T1 sequence (Q99653 2-195 partner limits assumed): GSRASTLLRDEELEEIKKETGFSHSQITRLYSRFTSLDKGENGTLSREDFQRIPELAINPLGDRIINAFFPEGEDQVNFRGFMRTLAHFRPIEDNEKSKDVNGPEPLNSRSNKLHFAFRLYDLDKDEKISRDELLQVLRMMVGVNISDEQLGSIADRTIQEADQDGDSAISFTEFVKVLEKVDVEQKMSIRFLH
# Assay: persistent inhibition of NHE3 in the cell-based assay of example 181 (4-chloro vs 4-cyano pairs)
# Conditions: for IC50: read-out: pIC50 (persistent) (converted); for Percent Inhibition: cell-based assay of example 181, persistent
# Procedure: The following pairs of compounds differ only in the 4-position substituent (either chloro (X—Cl) or cyano (X—CN)):
# The ability of compounds to inhibit human and rat NHE-3-mediated Na^+ dependent H^+ antiport after application and washout was measured using a modification of the pH sensitive dye method described above. PS120 fibroblasts stably expressing human NHE3 and NHERF2 were obtained from Mark Donowitz (Baltimore, Md.). Opossum kidney (OK) cells were obtained from the ATCC and propagated per their instructions. The rat NHE-3 gene was introduced into OK cells via electroporation, and cells were seeded into 96 well plates and grown overnight. Medium was aspirated from the wells, cells were washed once with NaCl-HEPES buffer (100 mM NaCl, 50 mM HEPES, 10 mM glucose, 5 mM KCl, 2 mM CaCl2, 1 mM MgCl2, pH 7.4), then overlayed with NaCl-HEPES buffer containing 0-30 μM test compound. After a 60 min incubation at room temperature, the test drug containing buffer was aspirated from the cells. Following aspiration, cells were washed once with NaCl-HEPES buffer without drug, then incubated for 30 min at 37° C. with NH4Cl-HEPES buffer (20 mM NH4Cl, 80 mM NaCl, 50 mM HEPES, 5 mM KCl, 2 mM CaCl2, 1 mM MgCl2, pH 7.4) containing 5 μM BCECF-AM. Cells were washed once with Ammonium free, Na^+-free HEPES (100 mM choline, 50 mM HEPES, 10 mM glucose, 5 mM KCl, 2 mM CaCl2, 1 mM MgCl2, pH 7.4) and incubated in the same buffer for 10 minutes at room temperature to lower intracellular pH. NHE-3-mediated recovery of neutral intracellular pH was initiated (10 min after compound washout) by addition of Na-HEPES buffer. […] Changes in intracellular pH were monitored using a FLIPR Tetra® (Molecular Devices, Sunnyvale, Calif.) by excitation at λex 439 to 505 nm, and measuring BCECF fluorescence at λem 538 nm. The initial rate of the fluorescence ratio change was used as a measure of NHE-mediated Na^+/H^+ activity, and reported as the change in fluorescence ratio per minute.
# [1] = cell-based assay of example 181, after washout
Structure (SMILES),pIC50 (persistent) [1],IC50 [1] [nM],Percent Inhibition [%]
"C[C@@H]1CN([C@H]2Cc3c(Cl)cc(Cl)cc3[C@@H]2Oc2ccc(S(=O)(=O)N[C@H]3CCN(CCOCCNC(=O)NCCCCNC(=O)NCCOCCN4CC[C@H](NS(=O)(=O)c5ccc(O[C@H]6c7cc(Cl)cc(Cl)c7C[C@@H]6N6CCN[C@H](C)C6)cc5)C4)C3)cc2)CCN1 [A-Cl, 3-(2-{2-[(3S)-3-(4-{[(1S,2S)-4,6-dichloro-2-[(3R)-3-methylpiperazin-1-yl]-2,3-dihydro-1H-inden-1-yl]oxy}benzenesulfonamido)pyrrolidin-1-yl]ethoxy}ethyl)-1-(4-{[(2-{2-[(3S)-3-(4-{[(1S,2S)-4,6-dichloro-2-[(3R)-3-methylpiperazin-1-yl]-2,3-dihydro-1H-inden-1-yl]oxy}benzenesulfonamido)pyrrolidin-1-yl]ethoxy}ethyl)carbamoyl]amino}butyl)urea]",–,2.51,101
"N#Cc1cc(Cl)cc2c1C[C@H](N1CCNCC1)[C@H]2Oc1ccc(S(=O)(=O)N[C@H]2CCN(CCOCCNC(=O)NCCCCNC(=O)NCCOCCN3CC[C@H](NS(=O)(=O)c4ccc(O[C@H]5c6cc(Cl)cc(C#N)c6C[C@@H]5N5CCNCC5)c(F)c4)C3)C2)cc1F [C-CN, 3-(2-{2-[(3 S)-3-(4-{[(1S,2S)-6-chloro-4-cyano-2-(piperazin-1-yl)-2,3-dihydro-1H-inden-1-yl]oxy}-3-fluorobenzenesulfonamido)pyrrolidin-1-yl]ethoxy}ethyl)-1-(4-{[(2-{2-[(3S)-3-(4-{[(1S,2S)-6-chloro-4-cyano-2-(piperazin-1-yl)-2,3-dihydro-1H-inden-1-yl]oxy}-3-fluorobenzenesulfonamido)pyrrolidin-1-yl]ethoxy}ethyl)carbamoyl]amino}butyl)urea]",–,0.501,106

# The remaining lines, values ahead:
pIC50 (persistent) [1],IC50 [1] [nM],Percent Inhibition [%],Structure (SMILES)
9.0,–,–,"N#Cc1cc(Cl)cc2c1C[C@H](N1CCNCC1)[C@H]2Oc1ccc(S(=O)(=O)NCCOCCOCCNC(=O)NCCCCNC(=O)NCCOCCOCCNS(=O)(=O)c2ccc(O[C@H]3c4cc(Cl)cc(C#N)c4C[C@@H]3N3CCNCC3)cc2)cc1 [G-CN, 3-(2-{2-[2-(4-{[(1S,2S)-6-chloro-4-cyano-2-(piperazin-1-yl)-2,3-dihydro-1H-inden-1-yl]oxy}benzenesulfonamido)ethoxy]ethoxy}ethyl)-1-(4-{[(2-{2-[2-(4-{[(1S,2S)-6-chloro-4-cyano-2-(piperazin-1-yl)-2,3-dihydro-1-yl]oxy}benzenesulfonamido)ethoxy]ethoxy}ethyl)carbamoyl]amino}butyl)urea]"
–,0.501,74,"N#Cc1cc(Cl)cc2c1C[C@H](N1CCNCC1)[C@H]2Oc1ccc(S(=O)(=O)NCCOCCOCCNC(=O)NCCCCNC(=O)NCCOCCOCCNS(=O)(=O)c2ccc(O[C@H]3c4cc(Cl)cc(C#N)c4C[C@@H]3N3CCNCC3)c(F)c2)cc1F [D-CN, 3-(2-{2-[2-(4-{[(1S,2S)-6-chloro-4-cyano-2-(piperazin-1-yl)-2,3-dihydro-1H-inden-1-yl]oxy}-3-fluorobenzenesulfonamido)ethoxy]ethoxy}ethyl)-1-(4-{[(2-{2-[2-(4-{[(1S,2S)-6-chloro-4-cyano-2-(piperazin-1-yl)-2,3-dihydro-1H-inden-1-yl]oxy}-3-fluorobenzenesulfonamido)ethoxy]ethoxy}ethyl)carbamoyl]amino}butyl)urea]"
–,5.01,99,"CN(C)[C@@H]1CCCN([C@H]2Cc3c(Cl)cc(Cl)cc3[C@@H]2Oc2ccc(S(=O)(=O)NCCOCCOCCNC(=O)NCCCCNC(=O)NCCOCCOCCNS(=O)(=O)c3ccc(O[C@H]4c5cc(Cl)cc(Cl)c5C[C@@H]4N4CCC[C@@H](N(C)C)C4)cc3)cc2)C1 [E-Cl, 3-(2-{2-[2-(4-{[(1S,2S)-4,6-dichloro-2-[(3R)-3-(dimethylamino)piperidin-1-yl]-2,3-dihydro-1H-inden-1-yl]oxy}benzenesulfonamido)ethoxy]ethoxy}ethyl)-1-(4-{[(2-{2-[2-(4-{[(1S,2S)-4,6-dichloro-2-[(3R)-3-(dimethylamino)piperidin-1-yl]-2,3-dihydro-1H-inden-1-yl]oxy}benzenesulfonamido)ethoxy]ethoxy}ethyl)carbamoyl]amino}butyl)urea]"
